Results published in US8058242B2, “Chimeric proteins with natriuretic activity” (The University of Queensland, priority 2004, dated 2011).
Positions of bridges follow the written chain, without caps; N, C: chain ends. Residues, ends and D or L forms follow the SMILES beside them.

How the values were obtained:
[1] = target: Endopeptidase (NEP) (EC 3.4.24.11) (Homo sapiens, UniProt P08473); test: Stability to enzymatic degradation by NEP (Examples 7, 16); assay type: in vitro ADME; conditions: over the 180 min measurement period, 37° C.
Experimental: The incubation buffer contained 100 mM Tris/HCl and 150 mM NaCl and the pH was adjusted to 7.2-7.4. In each assay, 100 μl of peptide [500 μM] was incubated with 300 μl buffer (with 500 ng Endopeptidase (NEP) or 10 μg Plasmin) at 37° C. 50 μl aliquots were taken at times 5 min, 30 min, 60 min, 90 min, 180 min and 24 h. The reaction was quenched by heating to 100° C. for 4 min and the remaining peptide concentrations measured by RP-HPLC. Note that the levels of Plasmin required to degrade these peptides was several thousands time the levels present in human plasma.
The stability of TDT and was investigated using the same enzymatic degradation assays (NEP, plasmin, pepsin) disclosed in Example 7. […] It is also evident that the increased NEP stability cannot be explained by the length of the tail region alone as the NEP cleavage site residues at the N-terminal end of the loop region.

[2] = target: T1, NPR-A signaling in HeLa cells (Homo sapiens, UniProt P16066); test: cGMP AlphaScreen assay in HeLa cells (Examples 14, 15); assay type: cell-based; conditions: 30 minutes at 37° C.
T1 construct: Cyclic GMP (cGMP) elevation in HeLa cells in response to Natriuretic Peptide stimulation; endogenous in cells; host or cells: HeLa cells
T1 sequence (P16066 33-1061): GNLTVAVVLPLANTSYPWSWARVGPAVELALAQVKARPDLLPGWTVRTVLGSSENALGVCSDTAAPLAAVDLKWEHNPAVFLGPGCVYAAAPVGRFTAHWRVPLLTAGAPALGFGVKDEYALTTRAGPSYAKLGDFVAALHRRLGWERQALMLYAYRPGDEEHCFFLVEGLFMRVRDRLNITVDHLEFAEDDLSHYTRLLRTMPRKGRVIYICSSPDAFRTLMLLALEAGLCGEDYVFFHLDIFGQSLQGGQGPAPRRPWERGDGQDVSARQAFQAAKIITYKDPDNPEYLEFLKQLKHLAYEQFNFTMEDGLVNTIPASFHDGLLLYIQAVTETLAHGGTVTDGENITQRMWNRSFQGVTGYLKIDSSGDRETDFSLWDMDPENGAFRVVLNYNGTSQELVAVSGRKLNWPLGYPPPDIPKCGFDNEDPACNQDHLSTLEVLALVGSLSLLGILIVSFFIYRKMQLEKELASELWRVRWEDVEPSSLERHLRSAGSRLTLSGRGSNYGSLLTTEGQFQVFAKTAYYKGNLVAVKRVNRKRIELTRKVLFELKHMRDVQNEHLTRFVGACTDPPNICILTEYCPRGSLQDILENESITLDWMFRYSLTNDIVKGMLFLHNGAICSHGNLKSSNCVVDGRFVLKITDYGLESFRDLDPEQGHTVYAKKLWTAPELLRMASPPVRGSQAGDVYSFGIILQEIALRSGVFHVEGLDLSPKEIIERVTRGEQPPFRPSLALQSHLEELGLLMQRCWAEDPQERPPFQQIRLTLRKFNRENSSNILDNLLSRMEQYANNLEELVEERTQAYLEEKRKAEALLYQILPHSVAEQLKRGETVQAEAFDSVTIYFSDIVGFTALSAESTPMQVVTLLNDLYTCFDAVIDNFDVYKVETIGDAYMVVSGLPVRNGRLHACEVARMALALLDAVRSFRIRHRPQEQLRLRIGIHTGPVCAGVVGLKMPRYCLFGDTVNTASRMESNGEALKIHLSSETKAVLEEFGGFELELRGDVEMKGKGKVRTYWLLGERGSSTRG
Experimental: HeLa cells were maintained in RPMI cell culture medium (Gihco Invitrogen, Mt Waverley, Australia) supplemented with 10% Foetal Bovine Serum (Cambrex Bio Science, Rockland, USA). Upon reaching confluence, cells were sub-cultured such that they would be 70-90% confluent at time of assay.
Cyclic GMP (cGMP) elevation in HeLa cells in response to Natriuretic Peptide stimulation was performed using a cGMP AlphaScreen kit (PerkinElmer, Boston, USA), as follows for normal experiments: Cells were detached, pelleted to remove growth medium, and resuspended in Stimulation Buffer (Hank's Balanced Salt Solution, 0.1% Bovine Serum Albumin [BSA] (Sigma-Aldrich, Castle Hill, Australia), 1 mM 3-Isobutyl-1-methylxanthine [IBMX] (Sigma-Aldrich, Castle Hill, Australia)) and diluted to 6×10^6 cells per mL (30 000 cells per 5 μL). 5 μL of cells were added to wells of white 384-well OptiPlates (PerkinElmer, Boston, USA), and stimulated with increasing concentrations of peptide for 30 minutes at 37° C. Cells were then lysed with 10 μL Lysis buffer (dH2O, 0.3% Tween-20 (Sigma-Aldrich, Castle Hill, Australia), 5 mM HEPES (JRH Biosciences, Kansas, USA) and 0.1% BSA) and 5 μL acceptor bead mix (10 μL per mL acceptor beads and 1/3000 anti-cGMP antibody (BioVision, Mountain View, USA) in lysis buffer) added per well in the dark. Plates were incubated in the dark at room temperature for 30 minutes, then 5 μL donor bead mix (10 μL per ML donor beads and 0.3 nM biotinylated cGMP in lysis buffer) was added per well in the dark and the plate incubated overnight at room temperature. Signal was read using an EnVision plate reader (PerkinElmer, Boston, USA) and data analysed using Prism software. The cGMP standard curve was performed as per manufacturer's instructions.
To examine whether TNPc and synthetic analogs produced in the inventors' laboratory could stimulate NPR-A signaling, cGMP elevations in HeLa cells in response to these peptides were measured, as described above.

[3] = −Log10EC50 (pEC50) ± Standard Error, cGMP accumulation in HeLa cells

Chain of Endopeptidase (NEP) (EC 3.4.24.11) (P08473 whole entry): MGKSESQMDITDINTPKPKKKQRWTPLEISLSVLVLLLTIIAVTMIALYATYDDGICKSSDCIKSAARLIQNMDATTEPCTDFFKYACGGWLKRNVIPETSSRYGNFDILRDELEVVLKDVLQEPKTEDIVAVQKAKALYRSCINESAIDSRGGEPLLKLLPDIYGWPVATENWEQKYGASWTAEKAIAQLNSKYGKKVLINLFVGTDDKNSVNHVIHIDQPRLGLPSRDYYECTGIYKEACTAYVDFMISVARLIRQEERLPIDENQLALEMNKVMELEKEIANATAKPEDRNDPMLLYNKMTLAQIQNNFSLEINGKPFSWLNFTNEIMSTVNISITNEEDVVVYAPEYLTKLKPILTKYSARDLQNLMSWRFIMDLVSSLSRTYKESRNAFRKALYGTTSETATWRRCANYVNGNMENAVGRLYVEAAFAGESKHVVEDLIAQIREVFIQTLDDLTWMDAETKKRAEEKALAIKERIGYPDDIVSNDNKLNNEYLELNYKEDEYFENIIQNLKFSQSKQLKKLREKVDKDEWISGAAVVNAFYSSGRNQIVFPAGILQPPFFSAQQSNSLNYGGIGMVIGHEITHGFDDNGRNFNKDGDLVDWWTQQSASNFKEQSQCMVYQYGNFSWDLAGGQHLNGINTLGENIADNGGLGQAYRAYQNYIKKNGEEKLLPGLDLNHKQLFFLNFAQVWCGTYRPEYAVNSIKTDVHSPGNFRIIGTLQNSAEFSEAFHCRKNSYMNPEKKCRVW

CC[C@H](C)[C@H](NC(=O)[C@H](CCCCN)NC(=O)[C@H](CO)NC(=O)[C@H](CC(=O)O)NC(=O)[C@@H](N)CO)C(=O)NCC(=O)N[C@@H](CC(N)=O)C(=O)NCC(=O)N[C@H]1CSSC[C@@H](C(=O)N[C@@H](CC(N)=O)C(=O)N[C@@H](CCCNC(=N)N)C(=O)N[C@H](C(=O)N[C@@H](CCSC)C(=O)N[C@@H](CCC(N)=O)C(=O)N[C@@H](CC(N)=O)C(=O)N2CCC[C@H]2C(=O)N2CCC[C@H]2C(=O)N[C@@H](CCCCN)C(=O)N[C@@H](CCCCN)C(=O)N[C@@H](Cc2ccccc2)C(=O)N[C@@H](CO)C(=O)NCC(=O)N[C@@H](CCC(=O)O)C(=O)O)[C@@H](C)CC)NC(=O)CNC(=O)[C@H](CC(C)C)NC(=O)CNC(=O)[C@H](CO)NC(=O)[C@H](C(C)C)NC(=O)[C@H](CO)NC(=O)CNC(=O)[C@H]([C@@H](C)CC)NC(=O)[C@H](CCCNC(=N)N)NC(=O)[C@H](CC(=O)O)NC(=O)[C@H](CC(C)C)NC(=O)[C@@H]2CCCN2C(=O)[C@H](Cc2ccccc2)NC(=O)CNC(=O)[C@H](Cc2ccccc2)NC1=O [TNPc] (H-SDSKIGNGCFGFPLDRIGSVSGLGCNRIMQNPPKKFSGE-OH; disulfide 9-25) was tested, and the “degradation by NEP” value [1] was “did not show any degradation” and the EC50 [2, 3] was 124000 nM.

With CC[C@H](C)[C@@H]1NC(=O)[C@H](CCCCN)NC(=O)[C@H](Cc2c[nH]cn2)NC(=O)CNC(=O)[C@H](Cc2ccccc2)NC(=O)[C@@H](NC(=O)[C@@H]2CCCN2C(=O)[C@H](CC(=O)O)NC(=O)[C@H](Cc2ccc(O)cc2)NC(=O)[C@H](CCCCN)NC(=O)[C@@H](NC(=O)[C@@H](N)CCC(=O)O)C(C)C)CSSC[C@@H](C(=O)N2CCC[C@H]2C(=O)N[C@@H](CO)C(=O)N[C@@H](CC(C)C)C(=O)N[C@@H](CCCNC(=N)N)C(=O)N[C@@H](CC(=O)O)C(=O)N2CCC[C@H]2C(=O)N[C@@H](CCCNC(=N)N)C(=O)N2CCC[C@H]2C(=O)N[C@@H](CC(N)=O)C(=O)N[C@@H](C)C(=O)N2CCC[C@H]2C(=O)N[C@@H](CO)C(=O)N[C@H](C(=O)N[C@@H](CO)C(=O)N[C@@H](C)C(=O)O)[C@@H](C)O)NC(=O)CNC(=O)[C@H](CC(C)C)NC(=O)[C@H](CC(N)=O)NC(=O)[C@H](CO)NC(=O)[C@H](C(C)C)NC(=O)[C@H](Cc2c[nH]cn2)NC(=O)[C@H](CC(N)=O)NC(=O)[C@H]([C@@H](C)CC)NC(=O)[C@H](CCCNC(=N)N)NC(=O)[C@H](CC(=O)O)NC1=O [DNP, reference compound] (H-EVKYDPCFGHKIDRINHVSNLGCPSLRDPRPNAPSTSA-OH; disulfide 7-23; N-terminus and C-terminus assumed) the EC50 ([2]; EC50, cGMP accumulation in HeLa cells) was 0.392 nM and the EC50 [2, 3] was 0.382 nM.
